From patent US7642270B2, “5-oxo-5,8-dihydro-pyrido-pyrimidine as inhibitors of c-fms kinase” (Janssen Pharmaceutica N.V., priority 2005, dated 2010)

Columns and labels:
[1] = target: CSF-1R (Homo sapiens, UniProt P07333); test: Peptide (non-phosphorylated) assay: fluorescence polarization competition immunoassay of CSF-1R phosphorylation of synthetic CSF-1R555-568 peptide; type: biochemical; details: 0.7 nM CSF-1R, 308 μM […], 1 mM ATP, 5 mM MgCl2, 80 min room temperature; mean of at least three determinations; read-out: c-fms Peptide IC50
CSF-1R, sequence (P07333 20-972): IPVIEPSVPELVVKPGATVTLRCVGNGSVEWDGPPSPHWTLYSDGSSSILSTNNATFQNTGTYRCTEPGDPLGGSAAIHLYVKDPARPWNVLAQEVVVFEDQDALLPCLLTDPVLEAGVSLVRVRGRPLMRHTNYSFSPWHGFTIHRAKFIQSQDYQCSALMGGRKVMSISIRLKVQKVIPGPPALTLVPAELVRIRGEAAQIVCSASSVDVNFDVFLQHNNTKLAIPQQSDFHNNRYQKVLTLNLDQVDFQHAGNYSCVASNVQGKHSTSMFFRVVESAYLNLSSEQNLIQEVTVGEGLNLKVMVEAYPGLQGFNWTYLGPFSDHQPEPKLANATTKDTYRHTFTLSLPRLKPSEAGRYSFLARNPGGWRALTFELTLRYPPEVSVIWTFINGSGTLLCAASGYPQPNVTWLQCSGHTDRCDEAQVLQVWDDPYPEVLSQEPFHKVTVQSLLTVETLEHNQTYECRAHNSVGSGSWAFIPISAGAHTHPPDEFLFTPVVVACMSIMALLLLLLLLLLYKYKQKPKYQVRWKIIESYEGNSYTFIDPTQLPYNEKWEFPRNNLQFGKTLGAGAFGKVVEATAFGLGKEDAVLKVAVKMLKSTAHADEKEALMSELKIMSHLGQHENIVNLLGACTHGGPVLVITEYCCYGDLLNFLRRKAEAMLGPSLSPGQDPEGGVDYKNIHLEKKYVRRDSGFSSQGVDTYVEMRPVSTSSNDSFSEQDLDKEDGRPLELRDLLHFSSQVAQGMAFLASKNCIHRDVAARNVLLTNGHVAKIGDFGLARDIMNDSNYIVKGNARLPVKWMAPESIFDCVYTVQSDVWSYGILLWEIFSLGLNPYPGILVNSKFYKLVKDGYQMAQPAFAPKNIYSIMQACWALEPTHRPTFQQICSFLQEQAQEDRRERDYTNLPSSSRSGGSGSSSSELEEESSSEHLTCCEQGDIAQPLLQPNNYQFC
Method: Peptide (Non-Phosphorylated) Assay
The kinase reaction was initiated by adding 1 μL of 10 mM ATP in assay buffer. […] Positive and negative control wells were included on each plate, where 4% DMSO in assay buffer was substituted for the compound; in addition, positive control wells received 1.2 μL of 50 mM EDTA before the start of the reaction.
The plates were covered and incubated at room temperature for 80 min. Reactions were stopped by addition of 1.2 μL of 50 mM EDTA. Each well then received 10 μL of a 1:1:3 mixture of 10× anti-phosphotyrosine antibody, 10×PTK green tracer, and FP dilution buffer, respectively (Cat. # P2837, Invitrogen, Carlsbad, Calif.). The plates were covered, incubated for 30 min at room temperature, and the fluorescence polarization was read on an Analyst plate reader (Molecular Devices).

[2] = target: c-fms (Homo sapiens, UniProt P07333); test: c-fms autophosphorylation, fluorescence polarization competition immunoassay; type: biochemical; details: 10 nM c-fms, 1 mM ATP, 5 mM MgCl2, 45 min room temperature; averages of three independent measurements; read-out: c-fms Autophosphorylation IC50
c-fms, sequence (P07333 20-972): as above

Compound	IC50 [1]	IC50 [2]
CCNC(=O)c1cn(-c2ccc3c(c2)CCC3)c2nc(Nc3cccc(N4CCNCC4)c3)ncc2c1=O [Cpd 54, 8-Indan-5-yl-5-oxo-2-(3-piperazin-1-yl-phenylamino)-5,8-dihydro-pyrido[2,3-d]pyrimidine-6-carboxylic acid ethyl amide]	1.1 nM	11 nM
CC1CN(c2cccc(Nc3ncc4c(=O)c(C(N)=O)cn(-c5ccc6c(c5)CCC6)c4n3)c2)CC(C)N1 (stereo not shown) [Cpd 55, 2-[3-(3,5-Dimethyl-piperazin-1-yl)-phenylamino]-8-indan-5-yl-5-oxo-5,8-dihydro-pyrido[2,3-d]pyrimidine-6-carboxylic acid amide]	0.51 nM	6 nM
CNC(=O)c1cn(-c2ccc3c(c2)CCC3)c2nc(Nc3cccc(N4CC(C)NC(C)C4)c3)ncc2c1=O (stereo not shown) [Cpd 56, 2-[3-(3,5-Dimethyl-piperazin-1-yl)-phenylamino]-8-indan-5-yl-5-oxo-5,8-dihydro-pyrido[2,3-d]pyrimidine-6-carboxylic acid methyl amide]	1.1 nM	10 nM

Further lines, results first:

IC50 [1]	IC50 [2]	Compound
0.42 nM	5 nM	NC(=O)c1cn(-c2ccc3c(c2)CCC3)c2nc(Nc3cccc(N4CCNCC4)c3)ncc2c1=O [Cpd 52, 8-Indan-5-yl-5-oxo-2-(3-piperazin-1-yl-phenylamino)-5,8-dihydro-pyrido[2,3-d]pyrimidine-6-carboxylic acid amide]
0.46 nM	8 nM	CNC(=O)c1cn(-c2ccc3c(c2)CCC3)c2nc(Nc3cccc(N4CCNCC4)c3)ncc2c1=O [Cpd 53, 8-Indan-5-yl-5-oxo-2-(3-piperazin-1-yl-phenylamino)-5,8-dihydro-pyrido[2,3-d]pyrimidine-6-carboxylic acid methyl amide]
